According to PubChem BioAssay AID330 (DTP/NCI, 2004):
“And” between values parts separate entries of the source, which are not always exact repeats. Equal values may be shown once. Toxic doses and inconclusive results are not listed.

Tested on: P388 leukemia ip, CD2F1 mice, survival T/C
Assay: NCI In Vivo Anticancer Drug Screen. Data for tumor model P388 Leukemia (intraperitoneal) in CD2F1 (CDF1) mice
Conditions: endpoint: median survival time, higher = longer survival
Outline: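 Mice carrying the transplanted tumor received test compound or vehicle. Survival was recorded in each group, and the value is the treated-group measurement divided by that of the vehicle-treated control group.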

[1] = dose: 50.0 mg/kg/injection, schedule: Q01DX009 (ip), vehicle: saline
[2] = dose: 100.0 mg/kg/injection, schedule: Q01DX009 (ip), vehicle: saline
[3] = dose: 200.0 mg/kg/injection, schedule: Q01DX009 (ip), vehicle: saline
[4] = dose: 12.5 mg/kg/injection, schedule: Q01DX005 (ip), vehicle: saline with Tween-80
[5] = dose: 50.0 mg/kg/injection, schedule: Q01DX005 (ip), vehicle: saline with Tween-80
[6] = dose: 50.0 mg/kg/injection, schedule: Q01DX005 (ip), vehicle: saline
[7] = dose: 100.0 mg/kg/injection, schedule: Q01DX005 (ip), vehicle: saline with Tween-80
[8] = dose: 200.0 mg/kg/injection, schedule: Q01DX005 (ip), vehicle: saline with Tween-80
[9] = dose: 12.5 mg/kg/injection, schedule: Q01DX009 (ip), vehicle: saline
[10] = dose: 25.0 mg/kg/injection, schedule: Q01DX009 (ip), vehicle: saline
[11] = dose: 3.12 mg/kg/injection, schedule: Q01DX009 (ip), vehicle: saline
[12] = dose: 6.25 mg/kg/injection, schedule: Q01DX009 (ip), vehicle: saline with Tween-80
[13] = dose: 12.5 mg/kg/injection, schedule: Q01DX009 (ip), vehicle: saline with Tween-80

CC(=O)NC1=C(N2CC2)C(=O)C(NC(C)=O)=C(N2CC2)C1=O
T/C (dose: 125.0 micrograms/kg/injection, schedule: Q01DX010 (ip), vehicle: saline): 115 % of control
T/C (dose: 500.0 micrograms/kg/injection, schedule: Q01DX010 (ip), vehicle: saline): 215 % of control
T/C (dose: 1000.0 micrograms/kg/injection, schedule: Q01DX010 (ip), vehicle: saline): 255 % of control

CSCCC(NC(C)=O)C(C)=O (stereo unspecified)
T/C [1]: 110 % of control
T/C [2]: 109 % of control
T/C [3]: 105 % of control

Nc1[nH]c(=O)ncc1-c1ccc([N+](=O)[O-])cc1
T/C [4]: 95 % of control
T/C (dose: 25.0 mg/kg/injection, schedule: Q01DX005 (ip), vehicle: saline with Tween-80): 97 % of control
T/C [5]: 101 % of control and 105 % of control

CN1OC(C#N)CC1c1ccccc1 (stereo unspecified)
T/C (dose: 12.5 mg/kg/injection, schedule: Q04DX002 (ip), vehicle: Klucel (hydroxypropylcellulose) (HPC)): 100 % of control
T/C (dose: 25.0 mg/kg/injection, schedule: Q04DX002 (ip), vehicle: Klucel (hydroxypropylcellulose) (HPC)): 99 % of control and 101 % of control
T/C (dose: 50.0 mg/kg/injection, schedule: Q04DX002 (ip), vehicle: Klucel (hydroxypropylcellulose) (HPC)): 101 % of control and 112 % of control
T/C (dose: 87.5 mg/kg/injection, schedule: Q04DX002 (ip), vehicle: Klucel (hydroxypropylcellulose) (HPC)): 101 % of control
T/C (dose: 100.0 mg/kg/injection, schedule: Q04DX002 (ip), vehicle: Klucel (hydroxypropylcellulose) (HPC)): 103 % of control and 105 % of control and 121 % of control
T/C (dose: 350.0 mg/kg/injection, schedule: Q04DX002 (ip), vehicle: Klucel (hydroxypropylcellulose) (HPC)): 100 % of control

COC(=O)CC1(C(=O)OC)c2sc(-c3ccccc3)c(-c3ccccc3)c2N2CCCC21 (stereo unspecified)
T/C (dose: 11.25 mg/kg/injection, schedule: Q01DX009 (ip), vehicle: Klucel (hydroxypropylcellulose) (HPC)): 97 % of control
T/C (dose: 22.5 mg/kg/injection, schedule: Q01DX009 (ip), vehicle: Klucel (hydroxypropylcellulose) (HPC)): 97 % of control
T/C (dose: 45.0 mg/kg/injection, schedule: Q01DX009 (ip), vehicle: Klucel (hydroxypropylcellulose) (HPC)): 97 % of control

C[C@]12CC[C@H](OC(=O)Cc3ccc(N(CCCl)CCCl)cc3)CC1CC[C@@H]1C2CC[C@]2(C)NC(=O)CCC12 (stereo partly specified)
T/C (dose: 50.0 mg/kg/injection, schedule: Q01DX001 (ip), vehicle: saline with Tween-80): 195 % of control
T/C (dose: 100.0 mg/kg/injection, schedule: Q01DX001 (ip), vehicle: saline with Tween-80): 243 % of control and 294 % of control

COc1cc(NCC(C)(O)CN2CCCC(C)C2C)c2ncccc2c1 (stereo unspecified)
T/C (dose: 12.5 mg/kg/injection, schedule: Q01DX005 (ip), vehicle: saline): 97 % of control
T/C (dose: 25.0 mg/kg/injection, schedule: Q01DX005 (ip), vehicle: saline): 101 % of control
T/C [6]: 112 % of control

Cc1cc2nc(=O)cc(CCl)n2c(=O)n1C(=O)C(O)C(O)C(O)CO (stereo unspecified)
T/C [5]: 109 % of control
T/C [7]: 117 % of control
T/C [8]: 113 % of control

O=c1cc[nH]c(=O)[nH]1
T/C (dose: 32.0 mg/kg/injection, schedule: Q01DX009 (ip), vehicle: Klucel (hydroxypropylcellulose) (HPC)): 99 % of control and 106 % of control
T/C (dose: 32.0 mg/kg/injection, schedule: Q01DX009 (ip), vehicle: saline with Tween-80): 114 % of control
T/C (dose: 64.0 mg/kg/injection, schedule: Q01DX009 (ip), vehicle: Klucel (hydroxypropylcellulose) (HPC)): 98 % of control and 100 % of control
T/C (dose: 64.0 mg/kg/injection, schedule: Q01DX009 (ip), vehicle: saline with Tween-80): 100 % of control
T/C [2]: 98 % of control
T/C (dose: 128.0 mg/kg/injection, schedule: Q01DX009 (ip), vehicle: Klucel (hydroxypropylcellulose) (HPC)): 99 % of control and 102 % of control
T/C (dose: 128.0 mg/kg/injection, schedule: Q01DX009 (ip), vehicle: saline with Tween-80): 95 % of control
T/C [3]: 100 % of control
T/C (dose: 256.0 mg/kg/injection, schedule: Q01DX009 (ip), vehicle: Klucel (hydroxypropylcellulose) (HPC)): 100 % of control and 109 % of control
T/C (dose: 256.0 mg/kg/injection, schedule: Q01DX009 (ip), vehicle: saline with Tween-80): 100 % of control
T/C (dose: 400.0 mg/kg/injection, schedule: Q01DX009 (ip), vehicle: saline): 102 % of control
T/C (dose: 512.0 mg/kg/injection, schedule: Q01DX009 (ip), vehicle: Klucel (hydroxypropylcellulose) (HPC)): 108 % of control and 109 % of control
T/C (dose: 512.0 mg/kg/injection, schedule: Q01DX009 (ip), vehicle: saline with Tween-80): 97 % of control

O=C(c1ccc(F)cc1)c1no[n+]([O-])c1C(=O)c1ccc(F)cc1
T/C (dose: 37.5 mg/kg/injection, schedule: Q01DX009 (ip), vehicle: saline with Tween-80): 122 % of control
T/C (dose: 75.0 mg/kg/injection, schedule: Q01DX009 (ip), vehicle: saline with Tween-80): 118 % of control

O=C(c1cc(-c2ccccc2)nc2ccccc12)n1c(=O)oc(=O)c2cc([N+](=O)[O-])ccc21
T/C [6]: 97 % of control
T/C (dose: 100.0 mg/kg/injection, schedule: Q01DX005 (ip), vehicle: saline): 101 % of control
T/C (dose: 200.0 mg/kg/injection, schedule: Q01DX005 (ip), vehicle: saline): 99 % of control

Cc1nc2nc(=S)[nH]c(N)c2nc1C
T/C [9]: 103 % of control
T/C [10]: 95 % of control
T/C [1]: 95 % of control
T/C [2]: 100 % of control

C=CC(=NC(C)(C)C)Nc1c(Cl)cccc1Cl
T/C (dose: 0.79 mg/kg/injection, schedule: Q01DX009 (ip), vehicle: saline): 100 % of control
T/C (dose: 1.56 mg/kg/injection, schedule: Q01DX009 (ip), vehicle: saline): 96 % of control
T/C [11]: 108 % of control
T/C [12]: 114 % of control
T/C [13]: 119 % of control
T/C [9]: 109 % of control
T/C [10]: 116 % of control

CCCCCCCCCCCCCCCCCCOCC(COP(=O)([O-])OCC[N+](C)(C)C)OC (stereo unspecified)
T/C [11]: 103 % of control
T/C (dose: 6.25 mg/kg/injection, schedule: Q01DX009 (ip), vehicle: saline): 109 % of control
T/C [4]: 109 % of control
T/C [9]: 107 % of control and 117 % of control
T/C [10]: 122 % of control and 124 % of control
T/C [1]: 88 % of control

NC(=O)CCCCCBr
T/C (dose: 50.0 mg/kg/injection, schedule: Q01DX009 (ip), vehicle: Klucel (hydroxypropylcellulose) (HPC)): 98 % of control
T/C (dose: 100.0 mg/kg/injection, schedule: Q01DX009 (ip), vehicle: Klucel (hydroxypropylcellulose) (HPC)): 95 % of control
T/C (dose: 200.0 mg/kg/injection, schedule: Q01DX009 (ip), vehicle: Klucel (hydroxypropylcellulose) (HPC)): 90 % of control

O=C1c2ccccc2-c2nc3ccccc3nc21
T/C [5]: 94 % of control
T/C [7]: 94 % of control

CC1=C(C(=O)CC(=O)C(=O)Nc2ccc(C)cc2C)Sc2ccccc2N1
T/C (dose: 60.0 mg/kg/injection, schedule: Q01DX005 (ip), vehicle: saline with Tween-80): 104 % of control
T/C (dose: 120.0 mg/kg/injection, schedule: Q01DX005 (ip), vehicle: saline with Tween-80): 101 % of control
T/C (dose: 240.0 mg/kg/injection, schedule: Q01DX005 (ip), vehicle: saline with Tween-80): 94 % of control

CSc1nccc(=O)n1-c1ccccc1Cl
T/C (dose: 100.0 mg/kg/injection, schedule: Q04DX003 (ip), vehicle: saline with Tween-80): 109 % of control
T/C (dose: 200.0 mg/kg/injection, schedule: Q04DX003 (ip), vehicle: saline with Tween-80): 114 % of control

CC1CCCC(NC(=O)N(CCCl)N=O)C1 (stereo unspecified)
T/C (dose: 4.0 mg/kg/injection, schedule: Q04DX003 (ip), vehicle: saline with Tween-80): 118 % of control
T/C [12]: 175 % of control
T/C [13]: 225 % of control
T/C (dose: 16.0 mg/kg/injection, schedule: Q04DX003 (ip), vehicle: saline with Tween-80): 177 % of control
T/C (dose: 25.0 mg/kg/injection, schedule: Q01DX009 (ip), vehicle: saline with Tween-80): 272 % of control and 295 % of control
T/C (dose: 25.0 mg/kg/injection, schedule: Q04DX003 (ip), vehicle: saline with Tween-80): 245 % of control
T/C (dose: 50.0 mg/kg/injection, schedule: Q04DX003 (ip), vehicle: saline with Tween-80): 118 % of control

C=C(CN(C)C)C(=O)c1ccc(OC2OC(COC(C)=O)C(OC(C)=O)C(OC(C)=O)C2OC(C)=O)cc1 (stereo unspecified)
T/C (dose: 6.25 mg/kg/injection, schedule: Q01DX005 (ip), vehicle: saline with Tween-80): 106 % of control
T/C [4]: 109 % of control

CC(=O)N1C=Cc2ccccc2C1C1NC=Cc2ccccc21 (stereo unspecified)
T/C [5]: 96 % of control
T/C [7]: 94 % of control
T/C [8]: 88 % of control

Cc1ccc2nc(N/N=C/c3ccccn3)cc(C)c2c1
T/C [5]: 103 % of control and 107 % of control and 111 % of control
T/C [7]: 110 % of control and 114 % of control and 115 % of control
T/C [8]: 110 % of control
